Experimental data from patent US20040132811A1, “Methods and products for inhibiting growth of fungal pathogens on turfgrass” (priority 2003, published 2004).
Entries after “also recorded” stand apart in the source; their conditions may differ.

Test system: anthracnose on bentgrass
Assay: Evaluation of fungicides for control of anthracnose on bentgrass putting greens (field test)
Type: in vivo, Colletotrichum graminicola
From the text: The test was established on the 16th green at the Fianna Hills Country Club in Fort Smith, Ark. The green is more than 20 years old and was maintained at 0.156-inch mowing height and with other standard practices used at Fianna Hills. The design was a randomized complete block with 20 treatments and four replications. Individual plots were 4 feet×5 feet and isolated with a spray shield during applications. Treatments were applied on approximate 14- or 28-day schedules. Actual dates of applications were 31 May, 13 Jun., 27 Jun., 12 Jul., 26 Jul., and 9 Aug., all in 2002. Treatments were applied at 4 gal/1000 sq ft using a hand-held CO2-powered sprayer at 20 psi with a TeeJet 8004VS spray tip. The amount of active ingredient per 1000 square feet for each fungicide is provided in Table I. The C3 biocontrol is a strain of Lysobacter enzymogenes that was supplied by Dr. Gary Yuen from the University of Nebraska. The MX 567 active ingredient was first dissolved in acetone and then diluted with water. Treatments were evaluated by recording disease incidence, disease intensity, and turf quality.

[1] = 2 Aug, 2.5 g ai + .05% Tween per 1000 sq ft, days 0, 13, 27, 42, 56, 70
[2] = 19 Aug, 2.5 g ai + .05% Tween per 1000 sq ft, days 0, 13, 27, 42, 56, 70

In the case of `C[C@H](COc1cc(F)ccc1F)NC(=O)C(C#N)C(C)(C)C` (stereo in doubt) [MX 567, rel-2-cyano-N-[(1R)-2-(2,5-difluorophenoxy)-1-methylethyl]-3,3-dimethylbutanamide], the “Incidence (%) of plot area with anthracnose symptoms” value (from here on “Incidence (%) of plot area”) [1] is reported as 23%, the “Intensity (0 = no disease to 4 = dead)” value [1] is reported as 1.0 and the “Severity (incidence × intensity)” value [1] is reported as 23. The “Incidence (%) of plot area” value (16 Jul, 2.5 g ai + .05% Tween per 1000 sq ft, days 0, 13, 27, 42, 56, 70) was 21%, the “Incidence (%) of plot area” value [2] was 29% and the “Intensity (0 = no disease to 4 = dead)” value [2] was 1.0. The “Severity (incidence × intensity)” value [2] was 29, the “Turf quality (0-9 rating scale: 0 = all dead, 9 = excellent)” value [2] was 6.3 and the “Incidence (%) of plot area” value (26 Jul, 2.5 g ai + .05% Tween per 1000 sq ft, days 0, 13, 27, 42, 56, 70) was 2%. The “turf quality, in words” value (summary of Table I) was “increases in turf quality; also recorded: highest turf quality” and the “disease severity, in words” value (summary of Table I versus nontreated checks) was “significant reductions in disease severity”.
